Source: patent US20130143835A1, “HCV Polymerase Inhibitors” (MEDIVIR AB, priority 2011, published 2013)

target: T1, HCV NS5B-21 (Hepatitis C virus genotype 1b, UniProt Q9WMX2); test: HCV NS5B-21 enzyme assay (SPA, 3H-ATP incorporation); assay type: biochemical; conditions: HCV NS5B-21 SPA enzyme assay, triphosphate tested
T1 construct: HCV NS5B-21 (21-aminoacid C-terminally truncated version); purchased Replizyme
Protocol: It is this triphosphate which is believed to be the antivirally active species. The enzyme assay described here example may be used to confirm that compounds of the invention are antivirally active as the 5′-triphosphate metabolite.
The enzyme assay measures the inhibitory effect of triphosphate compounds in an HCV NS5B-21 (21-aminoacid C-terminally truncated version) SPA assay (scintillation proximity assay). The assay is performed by evaluating the amount of radiolabelled ATP incorporated by HCV NS5B-21 into newly synthesized RNA using an heterogeneous biotinylated RNA template.
To determine IC50 values the compounds are tested at various concentrations in a final volume of 100 μl of reaction mixture. The reaction is stopped by addition of 0.5M EDTA solution. The samples are transferred into flashplates precoated with streptavidin. The incorporated radioactivity is quantified using a scintillation counter (Wallac Microbeta Trilux).
The assay should include enzyme controls (about four, containing 1 μl DMSO instead of inhibitor) and background control containing all ingredients except template.
Compounds are serially diluted in DMSO on a separate dilution plate to 100× the final desired assay concentrations. […]
Incubate the plate over night and read the flash plate in the Microbeta Trilux using the protocol Flash plates H3. […]
IC50 is determined using Graphpad Prism. […]

IC50 [nM] | Compound
13000 | C[C@@]1(N)[C@H](O)[C@@H](COP(=O)(O)OP(=O)(O)OP(=O)(O)O)O[C@H]1n1ccc(=O)[nH]c1=O [Example 3, potassium ((2R,3S,4R,5R)-4-amino-5-(2,4-dioxo-3,4-dihydropyrimidin-1(2H)-yl)-3-hydroxy-4-methyltetrahydrofuran-2-yl)methyl triphosphate]

test system: HCV type 1b replicon in Huh-7 luc/neo (Huh-Luc) cells; test: HCV replicon assay (Huh-Luc cells, luciferase read-out); assay type: cell-based; conditions: Hepatitis C virus, Huh-7, 72 h, inhibition of HCV replication, three days incubation, luciferase activity
Description: The in vitro antiviral activity against HCV of the compounds of formula I can be tested in a cellular HCV replicon system based on Lohmann et al. (1999) Science 285:110-113, with the further modifications described by Krieger et al. (2001) Journal of Virology 75: 4614-4624 (incorporated herein by reference), which is further exemplified in the examples section. This model, while not a complete infection model for HCV, is widely accepted as the most robust and efficient model of autonomous HCV RNA replication currently available. It will be appreciated that it is important to distinguish between compounds that specifically interfere with HCV functions from those that exert cytotoxic or cytostatic effects in the HCV replicon model, and as a consequence cause a decrease in HCV RNA or linked reporter enzyme concentration. Assays are known in the field for the evaluation of cellular cytotoxicity based for example on the activity of mitochondrial enzymes using fluorogenic redox dyes such as resazurin. Furthermore, cellular counter screens exist for the evaluation of non-selective inhibition of linked reporter gene activity, such as firefly luciferase. Appropriate cell types can be equipped by stable transfection with a luciferase reporter gene whose expression is dependent on a constitutively active gene promoter, and such cells can be used as a counter-screen to eliminate non-selective inhibitors.
The compounds of formula I may be examined for activity in the inhibition of HCV RNA replication in a cellular assay aimed at identifying compounds that inhibit a HCV functional cellular replicating cell line, also known as HCV replicons. A suitable cellular assay is based on a bicistronic expression construct, as described by Lohmann et al. (1999), Science vol. 285 pp. 110-113 with modifications described by Krieger et al. (2001), Journal of Virology 75: 4614-4624, in a multi-target screening strategy.
The assay utilizes the stably transfected cell line Huh-7 luc/neo (hereafter referred to as Huh-Luc). This cell line harbors an RNA encoding a bicistronic expression construct comprising the wild type NS3-NS5B regions of HCV type 1b translated from an Internal Ribosome Entry Site (IRES) from encephalomyocarditis virus (EMCV), preceded by a reporter portion (FfL-luciferase), and a selectable marker portion (neo^R, neomycine phosphotransferase). The construct is bordered by 5′ and 3′ NTRs (non-translated regions) from HCV type 1b. Continued culture of the replicon cells in the presence of G418 (neo^R) is dependent on the replication of the HCV RNA. The stably transfected replicon cells that express HCV RNA, which replicates autonomously and to high levels, encoding inter alia luciferase, are used for screening the antiviral compounds.
The replicon cells are plated in 384 well plates in the presence of the test and control compounds which are added in various concentrations. Following an incubation of three days, HCV replication is measured by assaying luciferase activity (using standard luciferase assay substrates and reagents and a Perkin Elmer ViewLux™ ultraHTS microplate imager). Replicon cells in the control cultures have high luciferase expression in the absence of any inhibitor. The inhibitory activity of a compound on luciferase activity is monitored on the Huh-Luc cells, enabling a dose-response curve for each test compound. EC50 values are then calculated, which value represents the amount of the compound required to decrease the level of detected luciferase activity by 50%, or more specifically, the ability of the genetically linked HCV replicon RNA to replicate.

Compound | EC50 [nM]
C[C@@]1(N)[C@H](O)[C@@H](CO)O[C@H]1n1ccc(=O)[nH]c1=O [Example 1, 1-((2R,3R,4S,5R)-3-amino-4-hydroxy-5-(hydroxymethyl)-3-methyltetrahydrofuran-2-yl)pyrimidine-2,4(1H,3H)-dione] | > 50000

same assay, conditions: inhibition of HCV replication, three days incubation, luciferase activity

Compound | EC50 [nM]
CCC[C@H](C)OC(=O)[C@@H](C)NP(=O)(OC[C@H]1O[C@@H](n2ccc(=O)[nH]c2=O)[C@](C)(N)[C@@H]1O)Oc1ccccc1 (single isomer, unassigned) [Example 25A] | 4700
CC(C)OC(=O)[C@H](C)NP(=O)(OC[C@H]1O[C@@H](n2ccc(=O)[nH]c2=O)[C@](C)(N)[C@@H]1O)Oc1ccccc1 (single isomer, unassigned) [Example 9A] | 13000
CCC(CC)COC(=O)[C@H](C)NP(=O)(OC[C@H]1O[C@@H](n2ccc(=O)[nH]c2=O)[C@](C)(N)[C@@H]1O)Oc1ccccc1 (single isomer, unassigned) [Example 20B] | 400
C[C@H](NP(=O)(OC[C@H]1O[C@@H](n2ccc(=O)[nH]c2=O)[C@](C)(N)[C@@H]1O)Oc1ccccc1)C(=O)OC1CCCCC1 (single isomer, unassigned) [Example 12B] | 130
C[C@H](NP(=O)(OC[C@H]1O[C@@H](n2ccc(=O)[nH]c2=O)[C@](C)(N)[C@@H]1O)Oc1ccccc1)C(=O)OCC1CC1 (single isomer, unassigned) [Example 26A] | 1700
C[C@H](NP(=O)(OC[C@H]1O[C@@H](n2ccc(=O)[nH]c2=O)[C@](C)(N)[C@@H]1O)Oc1ccccc1)C(=O)OCC1CC1 (single isomer, unassigned) [Example 26B] | 760
C[C@H](NP(=O)(OC[C@H]1O[C@@H](n2ccc(=O)[nH]c2=O)[C@](C)(N)[C@@H]1O)Oc1ccccc1)C(=O)OCC(C)(C)C (single isomer, unassigned) [Example 13A] | 2400
C[C@H](NP(=O)(OC[C@H]1O[C@@H](n2ccc(=O)[nH]c2=O)[C@](C)(N)[C@@H]1O)Oc1ccccc1)C(=O)OCC1CCCC1 (single isomer, unassigned) [Example 27A] | 2200
CCC(CC)OC(=O)[C@H](C)NP(=O)(OC[C@H]1O[C@@H](n2ccc(=O)[nH]c2=O)[C@](C)(N)[C@@H]1O)Oc1ccccc1 (single isomer, unassigned) [Example 28B] | 480
C[C@H](NP(=O)(OC[C@H]1O[C@@H](n2ccc(=O)[nH]c2=O)[C@](C)(N)[C@@H]1O)Oc1ccccc1)C(=O)OC1CCCCCCC1 (single isomer, unassigned) [Example 10A] | 15000
CC[C@@H](C)OC(=O)[C@H](C)NP(=O)(OC[C@H]1O[C@@H](n2ccc(=O)[nH]c2=O)[C@](C)(N)[C@@H]1O)Oc1ccccc1 (single isomer, unassigned) [Example 22B] | 660
CC(C)OC(=O)[C@H](C)NP(=O)(OC[C@H]1O[C@@H](n2ccc(=O)[nH]c2=O)[C@](C)(N)[C@@H]1O)Oc1ccccc1 (stereo partly drawn) [Example 2] | 2000
COC(=O)[C@H](C)NP(=O)(OC[C@H]1O[C@@H](n2ccc(=O)[nH]c2=O)[C@](C)(N)[C@@H]1O)Oc1ccccc1 (single isomer, unassigned) [Example 16A] | 5100
CCCCOC(=O)[C@H](C)NP(=O)(OC[C@H]1O[C@@H](n2ccc(=O)[nH]c2=O)[C@](C)(N)[C@@H]1O)Oc1ccccc1 (single isomer, unassigned) [Example 19A] | 1400
CCOC(=O)[C@H](C)NP(=O)(OC[C@H]1O[C@@H](n2ccc(=O)[nH]c2=O)[C@](C)(N)[C@@H]1O)Oc1ccccc1 (single isomer, unassigned) [Example 11A] | 6400
C[C@H](NP(=O)(OC[C@H]1O[C@@H](n2ccc(=O)[nH]c2=O)[C@](C)(N)[C@@H]1O)Oc1ccccc1)C(=O)OCc1ccccc1 (single isomer, unassigned) [Example 15B] | 660
